Reference: PubChem BioAssay AID2060493 (Molecular Pharmacology Branch, DTP, NCI, 2025)
Several values for one entry are separate records, joined by “and”; a condition that tells them apart may be missing. Equal entries are not always repeated.

Tested on: 616215-338-R-J1-PDC tumor spheroids, viability
Test: Anticancer human tumor 616215-338-R-J1-PDC patient-derived colon adenocarcinoma cell line growth inhibition [GQUAD]
Conditions: spheroids with HUVEC and MSC; for viability, T/C: stronger effect = lower value
Source text: DNA G-quadruplex Stabilizer Agents in Combinations in Complex Spheroids
A high-throughput screen of multi-cell type tumor spheroids was designed to identify active combinations of DNA G-quadruplex stabilizer agents and targeted small molecules. Complex spheroids include a stromal component modeled by human endothelial cells (HUVEC) and fibroblasts modeled by human mesenchymal stem cells (MSCs). The concentration ranges selected for each drug and investigational agent were based upon clinically achievable concentrations if the clinical Cmax of the agent was known.
Compounds. The drugs and investigational agents: pidnarulex (CX-5461; NSC782164), APTO-253 (NSC789042), BRACO-19 (NSC847499), peposertib (NSC802822), ceralasertib (NSC780249), elimusertib (NSC800525), camonsertib (NSC841442), AZD-1390 (NSC803789), olaparib (NSC753686), talazoparib (NSC767125), ART-558 (NSC835418), sotorasib (NSC818433), MRTX-1133 (NSC836407), SN-38 (NSC673596), topotecan (NSC609699), etoposide (NSC141540), doxorubicin (NSC123127), gemcitabine (NSC613327), 5-fluorouracil (NSC19893), paclitaxel (NSC125973), vemurafenib (NSC761431), panobinostat (NSC761190), R-306465 (JNJ-16241199; NSC773264), adavosertib (NSC754352), TP-3654 (NSC805149), carboplatin (NSC241240), KSQ-4279 (NSC840948), and staurosporine (NSC755774) were obtained from the National Cancer Institute (NCI) Developmental Therapeutics Program Chemical Repository (34). The FDA-approved anticancer drug set is available from the NCI Developmental Therapeutics Program. […] The stock solutions were prepared in dimethyl sulfoxide (DMSO, Sigma-Aldrich, St. Louis, MO, cat. D2650) at 800-fold the tested concentration and stored at -70 degrees C prior to their use. All drugs and investigational agents were tested over a range starting from a high concentration at or near the clinical Cmax and decreasing in half-log increments. If the clinical Cmax for an agent had not been determined, the highest concentration tested was 10 microM.
2.3 Cell Culture. All cells were maintained in an incubator at 37 degrees C and 5% CO2 with 95% humidity. The PDC lines were cultured according to standard operating procedures established by the NCI PDMR. All PDCs were thawed and cultured in Matrigel-coated flasks prepared with a working solution of 1X Ham's F-12 nutrient mix, without supplementation (Invitrogen, cat. 11765054), 100 U/mL penicillin-streptomycin (Invitrogen, cat. 15140122), and 2.5% Matrigel (Corning Inc., cat. 354248) for the first three passages. The 857933-349-R-J2-PDC line was cultured in 6C/Colon 1B media, which includes advanced DMEM/F-12 (Thermo Fisher Scientific, cat. 12634028), 10 mM HEPES (Thermo Fisher Scientific, cat. 15630080), 1X GlutaMAX supplement (Thermo Fisher Scientific, cat. 35050061), 0.1 mg/mL primocin (InvivoGen, cat. ant-pm-2), 10% defined fetal bovine serum, heat inactivated (HyClone Laboratories Inc., cat. SH30070.03HI), 50% L-WRN conditioned media (ATCC, cat. CRL-3276), 1.25 mM N-Acetyl-L-cysteine (Sigma-Aldrich, cat. A9165), 10 mM nicotinamide (Sigma-Aldrich, cat. N0636), 1X B-27 supplement (Thermo Fisher Scientific, cat. 17504044), 1X N-2 supplement (Thermo Fisher Scientific, cat. 17502048), 10 microM Y-27632 dihydrochloride (Tocris Bioscience, cat. 1254), and 50 ng/mL human EGF recombinant protein (Thermo Fisher Scientific, cat. PHG0311). The 485176-168-R4-J1-PDC line was cultured in Panc media, which includes all 6C/Colon 1B media components plus 100 ng/mL human FGF-10 (Thermo Fisher Scientific, cat. 100-26), 500 nM SB-431542 (Selleckchem, cat. S1067), and gastrin (Tocris, cat. 3006).
[…]

[1] = curve of first compound, second compound 0.0316 µM
[2] = curve of first compound, second compound 0.1 µM
[3] = curve of first compound, second compound 0.316 µM
[4] = curve of first compound, second compound 1 µM
[5] = curve of first compound, second compound 3.16 µM
[6] = curve of first compound, second compound 10 µM
[7] = second compound 0.0316 µM, first compound 0.0316 µM
[8] = second compound 0.0316 µM, first compound 0.316 µM
[9] = second compound 0.1 µM, first compound 0.0316 µM
[10] = second compound 0.1 µM, first compound 0.316 µM
[11] = second compound 0.316 µM, first compound 0.0316 µM
[12] = second compound 0.316 µM, first compound 0.316 µM
[13] = second compound 1 µM, first compound 0.0316 µM
[14] = second compound 1 µM, first compound 0.316 µM
[15] = second compound 3.16 µM, first compound 0.0316 µM
[16] = second compound 3.16 µM, first compound 0.316 µM
[17] = second compound 10 µM, first compound 0.0316 µM
[18] = second compound 10 µM, first compound 0.316 µM
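Also: spheroids exposed to agents for 7 days before readout.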
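For viability, T/C in this document: percent viability relative to DMSO vehicle control wells taken as 100%.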

Compound CCc1c2c(nc3ccc(O)cc13)-c1cc3c(c(=O)n1C2)COC(=O)[C@]3(O)CC + CN(C)c1ccc(Nc2c3ccc(NC(=O)CCN4CCCC4)cc3nc3cc(NC(=O)CCN4CCCC4)ccc23)cc1 has an IC50 [1] of 0.0143 µM, an IC50 [2] of 0.0174 µM and an IC50 [3] of 0.0146 µM. It also gave an IC50 [4] of 0.0124 µM, an IC50 [5] of 0.0113 µM and an IC50 [6] of 0.00862 µM. For the same compound, the viability, T/C (second compound 0.0316 µM, first compound 0.000999 µM) was 93.8%, the viability, T/C (second compound 0.0316 µM, first compound 0.00316 µM) was 92.4% and the viability, T/C (second compound 0.0316 µM, first compound 0.00999 µM) was 53.7%. It also gave a viability, T/C [7] of 32.6%, a viability, T/C (second compound 0.0316 µM, first compound 0.0999 µM) of 18.1% and a viability, T/C [8] of 8.35%. The viability, T/C (second compound 0.1 µM, first compound 0.000999 µM) was 112%, the viability, T/C (second compound 0.1 µM, first compound 0.00316 µM) was 99.8% and the viability, T/C (second compound 0.1 µM, first compound 0.00999 µM) was 70.3%. The viability, T/C [9] was 28.9%, the viability, T/C (second compound 0.1 µM, first compound 0.0999 µM) was 13.8% and the viability, T/C [10] was 12.4%. The viability, T/C (second compound 0.316 µM, first compound 0.000999 µM) was 101%, the viability, T/C (second compound 0.316 µM, first compound 0.00316 µM) was 96.7% and the viability, T/C (second compound 0.316 µM, first compound 0.00999 µM) was 59.9%. For the same compound, the viability, T/C [11] was 27%, the viability, T/C (second compound 0.316 µM, first compound 0.0999 µM) was 18% and the viability, T/C [12] was 8.81%. The viability, T/C (second compound 1 µM, first compound 0.000999 µM) was 97.3%, the viability, T/C (second compound 1 µM, first compound 0.00316 µM) was 94.3% and the viability, T/C (second compound 1 µM, first compound 0.00999 µM) was 46.9%. The viability, T/C [13] was 35%, the viability, T/C (second compound 1 µM, first compound 0.0999 µM) was 20.5% and the viability, T/C [14] was 10.3%. The viability, T/C (second compound 3.16 µM, first compound 0.000999 µM) was 98.3%, the viability, T/C (second compound 3.16 µM, first compound 0.00316 µM) was 86.8% and the viability, T/C (second compound 3.16 µM, first compound 0.00999 µM) was 49.3%. For the same compound, the viability, T/C [15] was 30.2%, the viability, T/C (second compound 3.16 µM, first compound 0.0999 µM) was 19.3% and the viability, T/C [16] was 12.6%. It also gave a viability, T/C (second compound 10 µM, first compound 0.000999 µM) of 95.7%, a viability, T/C (second compound 10 µM, first compound 0.00316 µM) of 73.9% and a viability, T/C (second compound 10 µM, first compound 0.00999 µM) of 46%. It also gave a viability, T/C [17] of 25.9%, a viability, T/C (second compound 10 µM, first compound 0.0999 µM) of 13.2% and a viability, T/C [18] of 8.62%.

O=c1[nH]cc(F)c(=O)[nH]1 + Cc1cnc(CNC(=O)c2c(=O)c3ccc(N4CCCN(C)CC4)nc3n3c2sc2ccccc23)cn1 was tested, and the IC50 [1] was 0.786 µM, the IC50 [2] was 0.559 µM and the IC50 [3] was < 0.0316 µM. The IC50 [4] was < 0.0316 µM, the IC50 [5] was < 0.0316 µM and the IC50 [6] was < 0.0316 µM. For the same compound, the viability, T/C [7] was 98.8%, the viability, T/C (second compound 0.0316 µM, first compound 0.1 µM) was 98.7% and the viability, T/C [8] was 62.9%. For the same compound, the viability, T/C (second compound 0.0316 µM, first compound 1 µM) was 51.5%, the viability, T/C (second compound 0.0316 µM, first compound 3.16 µM) was 40.4% and the viability, T/C (second compound 0.0316 µM, first compound 10 µM) was 35.8%. The viability, T/C [9] was 66.8%, the viability, T/C (second compound 0.1 µM, first compound 0.1 µM) was 62.4% and the viability, T/C [10] was 54.1%. For the same compound, the viability, T/C (second compound 0.1 µM, first compound 1 µM) was 40.4%, the viability, T/C (second compound 0.1 µM, first compound 3.16 µM) was 46.5% and the viability, T/C (second compound 0.1 µM, first compound 10 µM) was 31.5%. The viability, T/C [11] was 40.9%, the viability, T/C (second compound 0.316 µM, first compound 0.1 µM) was 48.7% and the viability, T/C [12] was 54.6%. For the same compound, the viability, T/C (second compound 0.316 µM, first compound 1 µM) was 36.1%, the viability, T/C (second compound 0.316 µM, first compound 3.16 µM) was 43% and the viability, T/C (second compound 0.316 µM, first compound 10 µM) was 39.2%. For the same compound, the viability, T/C [13] was 32.4%, the viability, T/C (second compound 1 µM, first compound 0.1 µM) was 39.2% and the viability, T/C [14] was 42.6%. It also gave a viability, T/C (second compound 1 µM, first compound 1 µM) of 33.4%, a viability, T/C (second compound 1 µM, first compound 3.16 µM) of 36.6% and a viability, T/C (second compound 1 µM, first compound 10 µM) of 22.4%. It also gave a viability, T/C [15] of 31.7%, a viability, T/C (second compound 3.16 µM, first compound 0.1 µM) of 25.2% and a viability, T/C [16] of 22.1%. It also gave a viability, T/C (second compound 3.16 µM, first compound 1 µM) of 30.3%, a viability, T/C (second compound 3.16 µM, first compound 3.16 µM) of 34.1% and a viability, T/C (second compound 3.16 µM, first compound 10 µM) of 28.7%. The viability, T/C [17] was 25.7%, the viability, T/C (second compound 10 µM, first compound 0.1 µM) was 28.7% and the viability, T/C [18] was 25.6%. The viability, T/C (second compound 10 µM, first compound 1 µM) was 30.3%, the viability, T/C (second compound 10 µM, first compound 3.16 µM) was 25.6% and the viability, T/C (second compound 10 µM, first compound 10 µM) was 30.4%.

For O=C(c1cc(Cc2n[nH]c(=O)c3ccccc23)ccc1F)N1CCN(C(=O)C2CC2)CC1, the viability, T/C (compound 0.0316 µM) was 96.6% and 106% and 92.3%, the viability, T/C (compound 0.1 µM) was 105% and 99.2% and 101% and the viability, T/C (compound 0.316 µM) was 98.7% and 104% and 96.1%. For the same compound, the viability, T/C (compound 1 µM) was 96.9% and 105% and 96.2%, the viability, T/C (compound 3.16 µM) was 102% and 105% and 98.3% and the viability, T/C (compound 10 µM) was 67.2% and 66.3% and 73.1%. The IC50 (curve of compound) was > 10 µM.

CC1COCCN1c1cc(-c2ccnn2C)c2ccnc(-c3ccn[nH]3)c2n1 (stereo not drawn) was tested, and the viability, T/C (compound 0.0316 µM) was 98.8% and 101% and 103%, the viability, T/C (compound 0.1 µM) was 51.8% and 57% and 69.5% and the viability, T/C (compound 0.316 µM) was 38.8% and 31.3% and 37%. The viability, T/C (compound 1 µM) was 29.2% and 23.1% and 26.1%, the viability, T/C (compound 3.16 µM) was 24.5% and 18.4% and 26.3% and the viability, T/C (compound 10 µM) was 27.6% and 18.9% and 17.4%. The IC50 (curve of compound) was 0.126 µM and 0.137 µM and 0.203 µM.
